Laboratory results reported in patent US4301140A, “Radiopharmaceutical method for monitoring kidneys” (G. D. Searle & Co., priority 1979, dated 1981).

Columns and labels:
[1] = cited from earlier work
[2] = Scintiscan (Anger camera) monitoring of distribution of radioactivity after intravenous administration, rabbit; format: in vivo, New Zealand rabbit; parameters: key: -: no significant measured radioactivity; relative amounts of measured radioactivity ranging from (-) for no significant measured radioactivity to (+++) for the maximum measured radioactivity; relative amounts of measured radioactivity ranging from (-) for no significant measured radioactivity to (+++) for the maximum measured radioactivity; +++: the maximum measured radioactivity; details: i.v., 1.21 mg, 0.81 mCi
Experimental: Approximately 0.2 milliliter of a solution of the complex formed from technetium-99m and 0.95 milligram of fructose 1,6-diphosphate and prepared generally as described in Example 1 and having a radioactivity of 0.5 millicurie was administered intravenously to an anesthetized New Zealand rabbit weighing about 3 kilograms. Approximately the same volume of a solution of the complex formed from technetium-99m and 1.21 milligrams of fructose 6-phosphate prepared generally as described in Example 2, having a radioactivity of 0.81 millicurie was similarly administered to a second New Zealand rabbit of about the same weight. The injections were made using a 1 milliliter tuberculin syringe connected to a #23 gauge indwelling cannula inserted into a marginal ear vein. Each rabbit was positioned in a full ventral position for 2.5 to 3 hours during which time the disposition of the radioactivity in the rabbit in this position was monitored using a computer-augmented Anger camera. The measurements and results are discussed hereinafter, and the results of the test using the fructose 1,6-diphosphate and fructose 6-phosphate complexes are presented in Tables 1 and 2, respectively.
(§1) At various times after the aforesaid administrations of solutions of complexes of this invention, which times are indicated in Tables 1-6, scintiscan photographs and video tape recordings were taken of the aforesaid rabbit, beagles and monkeys using the Anger camera. This instrument was a Pho-Gamma LFOV Scintillation Camera System, Model 6413, fitted with a Model 3137 Vari-Back Camera, a Model 3122 Data-Store/Playback System and a Model 27851 Analog-Digital/Digital-AnalogConverter (all Searle Radiographics, Inc.). This entire system was interfaced with a Xerox 530 computer (Xerox Corp., Minneapolis, Minn.) which was programmed to record net counts per unit of time and percents of total counts in individual organs and to plot organ radioactivity versus time. The camera was operated with a 140 KeV high resolution Type II converging collimator using a 20 percent technetium-99m window. Generally 400,000 counts were accumulated on each scintiscan using both video tape and self-developing film, with the animal in the full ventral position. The photographs represented a visualization of the anatomic relationships in the kidneys.
(§2) Tables 1-6 contain semi-quantitative representations of the distribution of radioactivity in the organs of the test animals determined from the scintiscans. In Tables 1-6, (--), (+), (++) and (+++) indicate relative amounts of measured radioactivity ranging from (-) for no significant measured radioactivity to (+++) for the maximum measured radioactivity.

[3] = Plasma clearance after intravenous injection, dogs (gamma spectrometer); format: in vivo, dog (male mongrel and female beagle); details: i.v., four tests
Experimental: In each case about 0.5-2 milliliters of a solution of the complex having radioactivity of about 1-4 mCi and formed from 0.5-10 milligrams of complexing agent were administered. […] The dogs ranged in weight from 6 to 15 kilograms. Periodically blood samples were removed from the jugular vein of the dogs and collected in vacuum tubes containing the disodium salt of ethylenediamine tetracetic acid and the radioactivity of one milliliter samples of plasma were measured in a gamma spectrometer.
The gamma spectrometer employed was a Model 1185 Gamma Scintillation Spectrometer (Searle Analytic Inc., Des Plaines, Ill.). One milliliter samples of plasma or whole blood were analyzed for technetium-99m, and samples were counted for 1 minute. As determined by the computer, the curve in FIG. 2 and the five other corresponding curves (not shown) from the other tests with the dogs were the best fitting curves passing through the plots of experimentally measured radioactivities.

[4] = Scintiscan (Anger camera) monitoring of distribution of radioactivity after intravenous administration, female beagle dog; format: in vivo; parameters: key: -: no significant measured radioactivity; relative amounts of measured radioactivity ranging from (-) for no significant measured radioactivity to (+++) for the maximum measured radioactivity; relative amounts of measured radioactivity ranging from (-) for no significant measured radioactivity to (+++) for the maximum measured radioactivity; +++: the maximum measured radioactivity; details: i.v., 7.3 mg, 0.84 mCi
Experimental: (§3) This procedure used with the rabbits was repeated with additional anesthetized animals: two female beagle dogs and two female rhesus monkeys. In these cases, however, unlike the cases of the rabbits, the complex solutions, again prepared generally as described in Examples 1 and 2, were injected intravenously in a saphenous vein of the dogs and monkeys.
Three milliliters of a solution of the complex formed from technetium-99m and 9.4 milligrams of fructose 1,6-diphosphate and having a radioactivity of 0.5 mCi were administered to one such dog weighing 11.7 kilograms. In addition, 1.6 milliliters of a solution of the complex formed from technetium-99m and 7.3 milligrams of fructose 6-phosphate having a radioactivity of 0.84 mCi were administered to a second such dog weighing 10.5 kilograms.
as §1, §2

[5] = Appearance of radioactive complex in kidneys and urinary bladder calculated from video tape measurements (FIG. 1), male mongrel dog; format: in vivo; details: i.v., 3-5 mg, 3.5 mCi, about 45 min
Excerpt: as §1
The appearance in the kidneys and urinary bladder of a male mongrel dog weighing 14.1 kilograms, of the radioactive complex formed from technetium-99m and 3-5 milligrams of fructose 6-phosphate administered intravenously as described above in a 0.5-1.0 milliliter solution prepared as in Example 2 and having a radioactivity of 3.5 mCi, was calculated from video tape measurements by the computer and is plotted in FIG. 1 as the percentage of total radioactivity administered in the form of the radioactive complex versus time after administration. At about 45 minutes after administration, about 60 percent of the total radioactivity administered was concentrated in the urinary bladder, with less than 7 percent of the total dose of the radioactive complex in the kidneys.

[6] = Scintiscan (Anger camera) monitoring of distribution of radioactivity after intravenous administration, rhesus monkey; format: in vivo; parameters: key: -: no significant measured radioactivity; relative amounts of measured radioactivity ranging from (-) for no significant measured radioactivity to (+++) for the maximum measured radioactivity; relative amounts of measured radioactivity ranging from (-) for no significant measured radioactivity to (+++) for the maximum measured radioactivity; +++: the maximum measured radioactivity; details: i.v., 7.6 mg, 0.79 mCi
Experimental: as §3
Similarly 0.3 milliliter of a solution of the complex formed from technetium-99m and 1.1 milligrams of fructose 1,6-diphosphate having a radioactivity of 1.2 mCi were administered to one such monkey weighing 5.1 kilograms. Also 1.5 milliliters of a solution of the complex formed from technetium-99m and 7.6 milligrams of fructose 6-phosphate having a radioactivity of 0.79 mCi were administered to a second such monkey weighing 6.7 kilograms.
as §1, §2

For `O=C(O)CNC(=O)c1ccccc1[131I]` [131I-o-iodohippurate], the route of excretion ([1]; after intravenous injection) is listed as “excreted through the kidneys exclusively” and the clearance model ([1]; in vivo) is listed as “appears to follow the two-compartment model”.
With “complex of technetium-99m and fructose 6-phosphate” the “Relative distribution of complex: Kidneys” value ([2]; 1 min) was “++”, the “Relative distribution of complex: Urinary Bladder” value ([2]; 1 min) was “+” and the “Relative distribution of complex: Vascular” value ([2]; 1 min) was “++”. The “Relative distribution of complex: Kidneys” value ([2]; 30 min) was “++”, the “Relative distribution of complex: Urinary Bladder” value ([2]; 30 min) was “++” and the “Relative distribution of complex: Vascular” value ([2]; 30 min) was “+”. The “Relative distribution of complex: Kidneys” value ([2]; 60 min) was “++”, the “Relative distribution of complex: Urinary Bladder” value ([2]; 60 min) was “+++” and the “Relative distribution of complex: Vascular” value ([2]; 60 min) was “+”. The “Relative distribution of complex: Kidneys” value ([2]; 120 min) was “+”, the “Relative distribution of complex: Urinary Bladder” value ([2]; 120 min) was “+++” and the “Relative distribution of complex: Vascular” value ([2]; 120 min) was “-”. The “Relative distribution of complex: Kidneys” value ([2]; 150 min) was “+”, the “Relative distribution of complex: Urinary Bladder” value ([2]; 150 min) was “+++” and the “Relative distribution of complex: Vascular” value ([2]; 150 min) was “-”. The “improved average half time, distributive phase” value ([3]; single obviously erroneous measurement eliminated, standard deviation 0.025 hour) was 0.072 h, the “improved average half time, elimination phase” value ([3]; single obviously erroneous measurement eliminated, standard deviation 0.72 hour) was 1.68 h and the “average half time, distributive phase” value ([3]; standard deviation 0.023 hour) was 0.088 h. For the same compound, the “average half time, elimination phase” value ([3]; standard deviation 3.29 hours) was 3.98 h, the “Relative distribution of complex: Kidneys” value ([4]; 1 min) was “++” and the “Relative distribution of complex: Urinary Bladder” value ([4]; 1 min) was “-”. The “Relative distribution of complex: Vascular” value ([4]; 1 min) was “++”, the “Relative distribution of complex: Kidneys” value ([4]; 6 min) was “++” and the “Relative distribution of complex: Urinary Bladder” value ([4]; 6 min) was “+”. For the same compound, the “Relative distribution of complex: Vascular” value ([4]; 6 min) was “+”, the “Relative distribution of complex: Kidneys” value ([4]; 25 min) was “+” and the “Relative distribution of complex: Urinary Bladder” value ([4]; 25 min) was “++”. For the same compound, the “Relative distribution of complex: Vascular” value ([4]; 25 min) was “+”, the “Relative distribution of complex: Kidneys” value ([4]; 30 min) was “+” and the “Relative distribution of complex: Urinary Bladder” value ([4]; 30 min) was “+++”. For the same compound, the “Relative distribution of complex: Vascular” value ([4]; 30 min) was “+”, the “Relative distribution of complex: Kidneys” value ([4]; 40 min) was “+” and the “Relative distribution of complex: Urinary Bladder” value ([4]; 40 min) was “+++”. The “Relative distribution of complex: Vascular” value ([4]; 40 min) was “-”, the “Relative distribution of complex: Kidneys” value ([4]; 50 min) was “+” and the “Relative distribution of complex: Urinary Bladder” value ([4]; 50 min) was “+++”. For the same compound, the “Relative distribution of complex: Vascular” value ([4]; 50 min) was “-”, the “Relative distribution of complex: Kidneys” value ([4]; 60 min) was “+” and the “Relative distribution of complex: Urinary Bladder” value ([4]; 60 min) was “+++”. For the same compound, the “Relative distribution of complex: Vascular” value ([4]; 60 min) was “-”, the “Relative distribution of complex: Kidneys” value ([4]; 70 min) was “+” and the “Relative distribution of complex: Urinary Bladder” value ([4]; 70 min) was “+++”. The “Relative distribution of complex: Vascular” value ([4]; 70 min) was “-”, the “Relative distribution of complex: Kidneys” value ([4]; 80 min) was “+” and the “Relative distribution of complex: Urinary Bladder” value ([4]; 80 min) was “+++”. The “Relative distribution of complex: Vascular” value ([4]; 80 min) was “-”, the “Relative distribution of complex: Kidneys” value ([4]; 90 min) was “+” and the “Relative distribution of complex: Urinary Bladder” value ([4]; 90 min) was “+++”. The “Relative distribution of complex: Vascular” value ([4]; 90 min) was “-”, the “percentage of total dose of the radioactive complex in the kidneys” value [5] was “less than 7%” and the “percentage of total radioactivity administered concentrated in the urinary bladder” value [5] was “about 60%”. The “radioactivity concentrated in any other organ” value [5] was “No measurable radioactivity”, the “Relative distribution of complex: Kidneys” value ([6]; 4 min) was “++” and the “Relative distribution of complex: Urinary Bladder” value ([6]; 4 min) was “+++”. For the same compound, the “Relative distribution of complex: Vascular” value ([6]; 4 min) was “+”, the “Relative distribution of complex: Kidneys” value ([6]; 30 min) was “++” and the “Relative distribution of complex: Urinary Bladder” value ([6]; 30 min) was “+++”. The “Relative distribution of complex: Vascular” value ([6]; 30 min) was “+”, the “Relative distribution of complex: Kidneys” value ([6]; 50 min) was “+” and the “Relative distribution of complex: Urinary Bladder” value ([6]; 50 min) was “+++”. The “Relative distribution of complex: Vascular” value ([6]; 50 min) was “-”, the “Relative distribution of complex: Kidneys” value ([6]; 65 min) was “+” and the “Relative distribution of complex: Urinary Bladder” value ([6]; 65 min) was “+++”. The “Relative distribution of complex: Vascular” value ([6]; 65 min) was “-”.
